For one test, the system named is H4. Description: Luminescence Cell-Based Dose Response HTS to Identify Activators of 5'UTR Stem-Loop Driven Prion Protein mRNA Translation in H4 Neuroglioblastoma Cells. [Related pubchem assays: 1829 (Project Summary), 1814 (Primary HTS)]. As to conditions: Homo sapiens. The format is functional.
Test [1] has as its target T1, Nuclear receptor subfamily 0 group B member 1 (Homo sapiens, UniProt P51843).
T1 sequence (P51843 whole entry): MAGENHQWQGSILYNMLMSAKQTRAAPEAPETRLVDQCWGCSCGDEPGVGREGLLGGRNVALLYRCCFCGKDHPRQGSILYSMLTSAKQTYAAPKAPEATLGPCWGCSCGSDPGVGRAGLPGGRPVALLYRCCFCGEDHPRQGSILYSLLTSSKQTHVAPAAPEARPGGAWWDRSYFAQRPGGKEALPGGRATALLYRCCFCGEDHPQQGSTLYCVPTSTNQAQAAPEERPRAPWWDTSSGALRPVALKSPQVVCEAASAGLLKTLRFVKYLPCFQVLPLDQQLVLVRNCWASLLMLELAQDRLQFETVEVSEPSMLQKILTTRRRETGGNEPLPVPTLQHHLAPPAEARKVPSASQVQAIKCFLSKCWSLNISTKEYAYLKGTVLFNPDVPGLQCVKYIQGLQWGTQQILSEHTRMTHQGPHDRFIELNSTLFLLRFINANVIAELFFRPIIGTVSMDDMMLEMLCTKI
Put plainly: Luminescence-based cell-based high throughput dose response assay for inhibitors of the orphan nuclear receptor subfamily 0, group B, member 1 (DAX1; NR0B1). [Related pubchem assays (depositor defined):AID504766, AID504790]. The format is functional.

A further test relates to HEK293. Put plainly: cells. The format is functional, cell-based. As to conditions: Homo sapiens.
Test [2] is described as follows: Luminescence Cell-Based Dose Response HTS to Identify Activators of Luciferase Translation or Activity in H4 […] Cells. [Related pubchem assays: 1829 (Project Summary), 1814 (Primary HTS)]. In kind it is functional.
In test [3] the target is T2, Short transient receptor potential channel 4 (Mus musculus, UniProt Q9QUQ5).
T2 sequence (Q9QUQ5 whole entry): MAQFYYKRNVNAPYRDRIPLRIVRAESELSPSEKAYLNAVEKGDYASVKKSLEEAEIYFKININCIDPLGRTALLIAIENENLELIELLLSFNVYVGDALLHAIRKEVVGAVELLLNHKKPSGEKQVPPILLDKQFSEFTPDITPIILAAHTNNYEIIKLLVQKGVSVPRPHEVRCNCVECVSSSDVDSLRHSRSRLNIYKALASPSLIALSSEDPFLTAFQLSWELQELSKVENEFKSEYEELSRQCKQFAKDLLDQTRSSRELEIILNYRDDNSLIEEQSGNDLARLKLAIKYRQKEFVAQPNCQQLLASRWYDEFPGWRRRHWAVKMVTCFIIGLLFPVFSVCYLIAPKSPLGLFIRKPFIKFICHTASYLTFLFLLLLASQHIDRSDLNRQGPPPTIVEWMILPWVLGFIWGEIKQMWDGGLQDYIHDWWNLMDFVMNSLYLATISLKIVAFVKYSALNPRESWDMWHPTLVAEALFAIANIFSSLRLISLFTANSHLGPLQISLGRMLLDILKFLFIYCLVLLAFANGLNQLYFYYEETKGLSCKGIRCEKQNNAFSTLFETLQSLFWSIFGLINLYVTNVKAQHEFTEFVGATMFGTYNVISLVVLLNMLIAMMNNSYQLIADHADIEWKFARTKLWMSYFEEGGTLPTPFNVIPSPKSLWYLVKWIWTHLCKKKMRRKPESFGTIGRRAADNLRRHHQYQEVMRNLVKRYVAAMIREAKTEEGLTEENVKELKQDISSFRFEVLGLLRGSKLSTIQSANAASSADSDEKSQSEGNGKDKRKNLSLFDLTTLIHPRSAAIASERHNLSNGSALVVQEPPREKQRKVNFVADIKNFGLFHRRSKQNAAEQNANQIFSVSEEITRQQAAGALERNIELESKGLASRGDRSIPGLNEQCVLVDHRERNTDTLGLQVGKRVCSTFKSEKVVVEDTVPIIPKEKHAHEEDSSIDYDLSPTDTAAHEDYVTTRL
Description: potency of mouse TRPC4 calcium flux blockers – cell-based, HEK293 TRPC4/mu-opioid, DAMGO stimulus, Fluo-4, dose response (AID 492994). In kind it is functional. (In general: Calcium assays in cells follow changes in intracellular calcium, usually with a dye or a luminescent sensor.)

The nature of test [4]: blockers of bursicon-stimulated LGR2 cAMP reporter – cell-based, HEK293, CRE-luciferase reporter, cherry pick, set 2, dose response (AID 743343).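 Further: transfected cells were stimulated with diluted bursicon conditioned medium after compound addition.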 In kind it is functional. For orientation: In a reporter assay the amount or activity of a reporter protein is the signal.
The nature of the next test: cells. In kind it is functional, cell-based.
The nature of test [5]: A549 cell cytotoxicity, dose response, cytotoxicity control, plate reader, cherry-pick, antagonist series (AID 743412). In kind it is functional, cell-based.
A short description of test [6]: luciferase reporter signal suppression in cells – H4 neuroglioma cells, luminescence, dose response (AID 1990). In kind it is functional, cell-based.
Test [7] has as its target T3, Microphthalmia-associated transcription factor (Homo sapiens, UniProt O75030).
T3 sequence (O75030 whole entry): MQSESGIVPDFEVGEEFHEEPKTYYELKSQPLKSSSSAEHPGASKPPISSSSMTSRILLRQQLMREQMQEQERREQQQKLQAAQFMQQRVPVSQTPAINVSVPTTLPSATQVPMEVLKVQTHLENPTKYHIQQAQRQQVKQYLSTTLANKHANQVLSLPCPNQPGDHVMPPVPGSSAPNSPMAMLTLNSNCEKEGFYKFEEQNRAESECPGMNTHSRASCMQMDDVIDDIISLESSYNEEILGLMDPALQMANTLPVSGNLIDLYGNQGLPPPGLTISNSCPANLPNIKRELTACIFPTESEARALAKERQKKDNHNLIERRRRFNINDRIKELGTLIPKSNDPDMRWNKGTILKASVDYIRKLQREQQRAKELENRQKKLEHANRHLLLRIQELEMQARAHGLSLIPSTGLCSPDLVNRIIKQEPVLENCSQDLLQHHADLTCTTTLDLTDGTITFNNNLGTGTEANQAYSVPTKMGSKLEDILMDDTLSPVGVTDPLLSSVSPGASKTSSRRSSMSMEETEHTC
Description: reducers of TRPM1 reporter luminescence, concentration series – cell-based, SK-MEL-5, cherry-picked, set 3, MITF inhibitor project, dose response (AID 493073).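 Further: SK-MEL-5 melanoma cells with luciferase driven by the MITF target TRPM1 promoter.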 In kind it is functional.

Test [8] in a line: toxicity toward HepG2 liver cells – cell-based, plate reader, cherry-pick, antagonist series, cytotoxicity control, dose response (AID 743416). The format is functional.
Test [9] in a line: Luminescence Cell-Based Dose Response HTS to Identify Inhibitors of 5'UTR Stem-Loop Driven Prion Protein mRNA Translation in H4 Neuroglioblastoma Cells. [Related pubchem assays: 1827 (Project Summary), 1813 (Primary HTS)]. In kind it is functional.
The nature of test [10]: luciferase reporter signal reduction – luminescence, H4-C neuroglioblastoma cells, dose response (AID 2458).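 Further: H4 neuroglioblastoma cells stably carrying a luciferase reporter gene fusion.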 The format is functional, cell-based.
A short description of test [11]: viability loss in HEK293 cells – cell-based, plate reader, cherry-picked samples, cytotoxicity control, dose response (AID 743446). In kind it is functional.
The nature of test [12]: alpha-synuclein stem-loop translation blockers – luminescence, H4 neuroglioblastoma cells, dose confirmation, confirmation (AID 2454).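 Further: H4 neuroglioblastoma cells carrying an alpha-synuclein 5'UTR luciferase reporter; potency for inhibition of the luciferase signal.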 The format is functional, cell-based.
Test [13] concerns the target 5-hydroxytryptamine receptor 5A (Homo sapiens, UniProt P47898). Put plainly: Counterscreen for agonists of OPRM1-OPRD1 heterodimerization: luminescence-based cell-based high throughput dose response assay to identify agonists of 5-hydroxytryptamine (serotonin) 5A receptor (HTR5A). [Related pubchem assays (depositor defined):AID504326, AID504355, AID504692, AID504904, AID504905]. The format is functional. (In general: A counterscreen serves to expose hits that act by an unwanted route or on another target.)

A short description of test [14]: alpha-synuclein stem-loop luciferase translation blockers – H4 neuroglioma cells, luminescence, confirmation (AID 1988). In kind it is functional, cell-based.
Test [15] concerns the target Delta-type opioid receptor (Homo sapiens, UniProt P41143). Description: Counterscreen for agonists of heterodimerization of the mu 1 (OPRM1) and delta 1 (OPRD1) opioid receptors: Luminescence-based cell-based high throughput dose response assay to identify agonists of OPRD1 homodimerization. [Related pubchem assays (depositor defined):AID504326, AID504355, AID504692, AID504904, AID504905]. In kind it is functional.

Test [16] can be described thus: blockade of melanocortin 4 receptor signaling – cell-based, plate reader, cherry pick, counter-screen for LGR2 antagonist project, dose response (AID 743444).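 Further: transfected HEK 293 cells stimulated with alpha-MSH peptide; potency of inhibitors of the alpha-MSH evoked signal.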 The format is functional.
Another test concerns the target Mu-type opioid receptor (Homo sapiens, UniProt P35372). Description: Counterscreen for agonists of heterodimerization of the mu 1 (OPRM1) and delta 1 (OPRD1) opioid receptors: Luminescence-based cell-based high throughput dose response assay to identify agonists of OPRM1 homodimerization. In kind it is functional.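 Further: U2OS cells expressing OPRM1 and beta-arrestin as split beta-galactosidase partners.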
Another test concerns the target Beta-galactosidase (Escherichia coli, UniProt Q8VNN2). Description: PubChem AID 485352. The format is functional.
Test [17] has as its target T4, Type-1 angiotensin II receptor (Homo sapiens, UniProt P30556).
T4 sequence (P30556 whole entry): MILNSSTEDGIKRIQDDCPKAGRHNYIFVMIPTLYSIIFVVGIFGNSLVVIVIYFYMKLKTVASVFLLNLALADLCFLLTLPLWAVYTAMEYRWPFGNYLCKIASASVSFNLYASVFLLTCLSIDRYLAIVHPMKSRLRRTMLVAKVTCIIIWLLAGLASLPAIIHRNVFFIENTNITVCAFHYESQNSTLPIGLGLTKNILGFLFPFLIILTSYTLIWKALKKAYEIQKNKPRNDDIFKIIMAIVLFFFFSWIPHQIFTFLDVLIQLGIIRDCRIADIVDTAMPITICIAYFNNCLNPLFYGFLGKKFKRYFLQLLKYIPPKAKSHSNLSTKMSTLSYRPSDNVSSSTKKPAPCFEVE
Description: antagonism of angiotensin II type 1 receptor – cell-based, uHTS hits, selectivity assay for APJ receptor antagonist project, dose response (AID 463214).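 Further: antagonist potency against angiotensin II stimulated AT1 response.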 The format is functional.

SMILES strings stand for the structures. The source made the active and inactive calls.

Sequence of Delta-type opioid receptor (P41143 whole entry): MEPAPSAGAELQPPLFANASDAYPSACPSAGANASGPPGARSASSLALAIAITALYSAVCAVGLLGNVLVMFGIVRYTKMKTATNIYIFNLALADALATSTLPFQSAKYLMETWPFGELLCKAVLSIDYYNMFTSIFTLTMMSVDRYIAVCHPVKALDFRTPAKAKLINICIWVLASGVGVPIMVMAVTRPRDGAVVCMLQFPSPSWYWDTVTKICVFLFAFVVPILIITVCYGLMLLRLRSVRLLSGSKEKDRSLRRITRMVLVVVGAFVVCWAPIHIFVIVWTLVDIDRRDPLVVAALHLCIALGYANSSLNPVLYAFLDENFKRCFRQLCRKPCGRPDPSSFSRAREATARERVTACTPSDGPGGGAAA
Sequence of Beta-galactosidase (Q8VNN2 whole entry): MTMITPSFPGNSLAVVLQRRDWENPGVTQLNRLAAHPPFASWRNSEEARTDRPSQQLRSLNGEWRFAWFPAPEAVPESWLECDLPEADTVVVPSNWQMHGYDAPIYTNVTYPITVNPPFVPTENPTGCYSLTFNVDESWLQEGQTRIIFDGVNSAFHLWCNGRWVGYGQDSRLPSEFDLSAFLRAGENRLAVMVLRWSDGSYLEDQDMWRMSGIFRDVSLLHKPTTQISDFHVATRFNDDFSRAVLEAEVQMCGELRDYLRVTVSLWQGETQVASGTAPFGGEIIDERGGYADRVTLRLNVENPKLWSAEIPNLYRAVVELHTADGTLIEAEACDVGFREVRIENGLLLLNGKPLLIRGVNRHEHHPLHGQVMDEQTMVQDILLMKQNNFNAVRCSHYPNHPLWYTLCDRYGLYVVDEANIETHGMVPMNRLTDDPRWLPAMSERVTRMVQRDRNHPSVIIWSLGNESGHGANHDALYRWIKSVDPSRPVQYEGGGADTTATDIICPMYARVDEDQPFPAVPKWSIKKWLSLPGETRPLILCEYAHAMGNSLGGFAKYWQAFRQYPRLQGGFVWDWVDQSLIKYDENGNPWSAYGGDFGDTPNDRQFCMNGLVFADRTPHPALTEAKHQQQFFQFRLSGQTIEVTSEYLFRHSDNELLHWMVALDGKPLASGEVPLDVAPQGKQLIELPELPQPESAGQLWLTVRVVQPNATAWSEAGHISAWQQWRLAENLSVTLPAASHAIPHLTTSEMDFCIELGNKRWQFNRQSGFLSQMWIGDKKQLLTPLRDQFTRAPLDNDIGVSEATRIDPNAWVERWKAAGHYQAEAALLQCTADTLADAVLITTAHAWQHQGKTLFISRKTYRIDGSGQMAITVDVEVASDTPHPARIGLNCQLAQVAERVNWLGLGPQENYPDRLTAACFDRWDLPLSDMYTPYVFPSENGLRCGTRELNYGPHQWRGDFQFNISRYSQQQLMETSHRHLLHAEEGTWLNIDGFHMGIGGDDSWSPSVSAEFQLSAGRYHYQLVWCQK
Sequence of 5-hydroxytryptamine receptor 5A (P47898 whole entry): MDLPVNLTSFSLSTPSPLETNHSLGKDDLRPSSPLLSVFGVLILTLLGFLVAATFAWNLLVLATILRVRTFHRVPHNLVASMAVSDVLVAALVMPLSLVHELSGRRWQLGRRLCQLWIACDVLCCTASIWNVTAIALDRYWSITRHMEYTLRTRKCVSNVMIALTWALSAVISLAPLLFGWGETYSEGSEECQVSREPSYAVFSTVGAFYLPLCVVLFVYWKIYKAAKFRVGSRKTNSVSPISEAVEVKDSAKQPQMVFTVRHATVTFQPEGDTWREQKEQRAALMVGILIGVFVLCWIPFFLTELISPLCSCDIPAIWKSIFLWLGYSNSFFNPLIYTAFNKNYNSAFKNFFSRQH
Sequence of Mu-type opioid receptor (P35372 whole entry): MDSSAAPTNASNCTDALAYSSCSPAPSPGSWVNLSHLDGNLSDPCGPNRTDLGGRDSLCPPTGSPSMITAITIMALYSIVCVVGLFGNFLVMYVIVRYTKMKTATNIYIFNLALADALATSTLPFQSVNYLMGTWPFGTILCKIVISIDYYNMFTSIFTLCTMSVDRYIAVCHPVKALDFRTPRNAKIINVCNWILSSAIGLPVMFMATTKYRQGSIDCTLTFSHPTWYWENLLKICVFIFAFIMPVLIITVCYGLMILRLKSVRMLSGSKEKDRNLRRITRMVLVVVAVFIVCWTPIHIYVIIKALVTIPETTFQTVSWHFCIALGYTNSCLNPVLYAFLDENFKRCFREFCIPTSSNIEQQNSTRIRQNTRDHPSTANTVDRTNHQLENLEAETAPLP

Turning to `Clc1ccc(/C=N/Nc2ncnc3ccccc23)cc1Cl`, the EC50 is 7.13 µM (active) in the test on H4 and 0.181 µM (active) in [2]. Besides, the IC50 (in [1]; with HEK293) was > 67.5 µM (inactive) throughout.

In the case of `O=C(O)Cc1sc(Nc2ccccc2)nc1-c1cccs1`, the IC50 (in [1]; in the test on HEK293) was > 67.5 µM (inactive) each time.

As to `Cc1cc(N2CCN(c3ncccn3)CC2)nc2ccccc12`, in test [3], the IC50 is 469 µM (active).

As to `CC(=O)CSc1ccc(-c2nc3cc(C)c(C)cc3[nH]2)cn1`, the AC50 in test [4] was 0.82 µM (active); in [5], > 52 µM (inactive); in test [7] it was 3.67 µM (active); in test [8] it was > 52 µM (inactive); in [11], 34.7 µM (active); in test [16], 1.11 µM (active). Also, the EC50 in “cells” is > 12 µM (inconclusive); in [6], 0.113 µM (active); in test [9] it was 12.8 µM (active); in [10], 0.837 µM (active); in test [12], 1 µM (active); in test [13] it was > 92.5 µM (inactive). Moreover, the EC50 in [14] was < 0.1 µM (active); in test [15], > 92.5 µM (inactive); at Mu-type opioid receptor it was 44.8 µM (inactive).

Regarding `CC1CCCN(CC(=O)c2ccc(Cl)c(Cl)c2)C1` (centres undefined), the EC50 on Beta-galactosidase is 30.8 µM (active). Moreover, the IC50 in [17] is 4.76 µM (active).

The EC50 is the concentration needed to bring the measured effect to its halfway point. One may read the IC50 as the concentration at which inhibition is half-maximal. The term AC50 denotes the midpoint of the concentration-response curve, whichever way the signal moves.
